Viability data for 30 molecules are collected here from PMC12040169 (PLOS Biology, 2025).

The viability is a read-out of living cells in per cent, often relative to untreated cells.

This data set can be described thus: in vitro. The settings on record: human, hela cells, % viability.

In the case of `Cc1ccc(Cn2ccsc2=NC(=O)c2cc(S(=O)(=O)N3CCOCC3)ccc2C)cc1` [CBK296935], the viability at 28.5 h, 10 µM was 101%.
The same measure, in the same setting: to `CC(C)C(=O)Nc1ccc(-c2ccsc2)c2ccccc12` [CBK083758] belongs 92.7%; to `Cc1cn([C@@H]2O[C@H](CO)[C@H](O)C2O)c(=O)nc1N` (stereo partly drawn) [CBK201268], 105%.
As to `O=C(c1ccc2c(c1)C(=O)N(c1ccncc1)C2=O)c1ccc2c(c1)C(=O)N(c1ccncc1)C2=O` [CBK261194], the viability at 28.5 h, 10 µM turned out to be 88.5%.
Still for that read-out and setting: next, `Cc1nc2ccc(C(=O)N3CCN(C(=O)c4ccc(Cl)cc4)CC3)cc2nc1C` [CBK296647]: 85%; `O=C(O)c1ccc2c(c1)C(=O)N(c1ccc(-c3ccnc(-c4ccc(N5C(=O)c6ccc(C(=O)O)cc6C5=O)cc4)n3)cc1)C2=O` [CBK261192]: 104%; `OCCc1ccc(Nc2cc(-c3cc4ccccc4s3)ncn2)cc1` [CBK090770]: 103%.
On the same count and under the same terms, next, `O=C(NC1CC1)[C@H]1CN2CCC1C[C@@H]2Cn1cc(C2(O)CCCC2)nn1` (stereo partly drawn) [CBK289092]: 82.1%; `COc1nc(Cl)nc(Oc2ccc(F)cc2)n1` [CBK011279]: 122%.
For `CC[C@H]1CN(C(C)=O)CC[C@H]1CC(=O)Nc1nccs1` [CBK289130], the viability at 28.5 h, 10 µM was 97.8%.
On the same count and under the same terms, to `O=C(C1=C(O)C(=O)N(CCCN2CCOCC2)C1c1cccs1)c1cccs1` (stereo not drawn) [CBK264533] belongs 111%; to `CCOC(=O)N1CCN(S(=O)(=O)c2ccc3c(c2)n(C)c(=O)n3C)CC1` [CBK304620], 86.8%; to `c1coc(CNc2cncc(-c3cccc4ccccc34)n2)c1` [CBK065573], 115%.
`CCCC(=O)C1(c2ccccc2)CCN(C(=O)Nc2cccc(SC)c2)CC1` [CBK016441]: for the setting “bulk resorufin, single well”, the viability at 28.5 h, 10 µM was determined as 94.6%.
`COc1ccc(C2=NN(c3ccc([N+](=O)[O-])cc3)C(=O)/C2=C/NCc2ccc3c(c2)OCO3)cc1` [CBK264598]: the viability at 28.5 h, 10 µM was 84.1%.
Still for that read-out and setting: next, `O=C(COc1ccc(S(=O)(=O)N2CCCCC2)cc1)N1CCC(Cc2ccccc2)CC1` [CBK268547]: 108%; `COCCNc1nc2c(c(N3CCSCC3)n1)CCNCC2` [CBK307510]: 111%; `Cc1ccc2[nH]c3c(c2c1)CCCC3NCC(O)Cc1ccccc1` (stereo not drawn) [CBK263154]: 87.2%.
On the same count and under the same terms, to `O=S(=O)(NC[C@H]1C[C@@H]2CC[N@]1C[C@@H]2CN1CCOCC1)c1ccc(Cl)cc1` [CBK288762] belongs 92.4%.
With `CC(=O)Nc1ccc(S(=O)(=O)N2CCCCC2C(=O)O)cc1` (stereo not drawn) [CBK265241], the viability at 28.5 h, 10 µM is 102%.
With `COc1ncccc1CNC(=O)Nc1cccn(CC(F)(F)F)c1=O` [CBK305216], the viability at 28.5 h, 10 µM turned out to be 113%.
Still for that read-out and setting: to `O=C(Nc1ccccc1Nc1cc(-c2ccccc2)nn1-c1ccccc1)c1ccc(Br)cc1` [CBK261297] belongs 84.7%; to `C=Cn1ncc(CN(CCCn2ccnc2)CC2CC=CCC2)c1C` (stereo not drawn) [CBK283219], 96.8%; to `COc1ccc2c(c1)cc(C(=O)N(C)CCCn1nc(C)cc1C)n2C` [CBK307196], 81.4%.
As for `COc1ccc(Nc2nc(-c3ccc(F)cc3)cs2)c(OC)c1` [CBK131705], the viability at 28.5 h, 10 µM is 87.5%.
The same measure, in the same setting: next, `CC(C)(C)c1cc(NC(=O)C(C)(C)S(=O)(=O)c2ccc(C(F)(F)F)cn2)no1` [CBK006849]: 113%; `COc1ccc2[nH]cc(CCNC(=O)Cc3ccsc3)c2c1` [CBK116205]: 91.3%; `COc1ccc(Nc2cc(-c3ccsc3)ncn2)cc1OC` [CBK090820]: 97.2%.
Turning to `Cc1cnc2[nH]c(C(F)(F)F)c(CN3CCCC(CO)C3)c2c1` (stereo not drawn) [CBK285167], the viability at 28.5 h, 10 µM was 93.6%.
Still for that read-out and setting: next, `CCN1CCN(C(=O)CN(c2ccccc2)S(=O)(=O)N(C)C)CC1` [CBK268222]: 113%.
